In ChEMBL document CHEMBL1201862, “PubChem BioAssay data set” (2004):
Several values for one entry are separate records, joined by “and”; a condition that tells them apart may be missing. Equal values may be shown once. Activity calls are given as the source filed them.

Assays:
Cytochrome P450 2D6 = Cytochrome P450 2D6 (Homo sapiens, UniProt P10635);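 also: CYP2D6 member of a cytochrome P450 panel assay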
Cytochrome P450 2C9 = Cytochrome P450 2C9 (Homo sapiens, UniProt P11712)
Cytochrome P450 1A2 = molecular target: T1, Cytochrome P450 1A2 (Homo sapiens, UniProt P05177);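 also: PubChem cytochrome P450 panel assay, CYP1A2 panel member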
T1 sequence (P05177 whole entry): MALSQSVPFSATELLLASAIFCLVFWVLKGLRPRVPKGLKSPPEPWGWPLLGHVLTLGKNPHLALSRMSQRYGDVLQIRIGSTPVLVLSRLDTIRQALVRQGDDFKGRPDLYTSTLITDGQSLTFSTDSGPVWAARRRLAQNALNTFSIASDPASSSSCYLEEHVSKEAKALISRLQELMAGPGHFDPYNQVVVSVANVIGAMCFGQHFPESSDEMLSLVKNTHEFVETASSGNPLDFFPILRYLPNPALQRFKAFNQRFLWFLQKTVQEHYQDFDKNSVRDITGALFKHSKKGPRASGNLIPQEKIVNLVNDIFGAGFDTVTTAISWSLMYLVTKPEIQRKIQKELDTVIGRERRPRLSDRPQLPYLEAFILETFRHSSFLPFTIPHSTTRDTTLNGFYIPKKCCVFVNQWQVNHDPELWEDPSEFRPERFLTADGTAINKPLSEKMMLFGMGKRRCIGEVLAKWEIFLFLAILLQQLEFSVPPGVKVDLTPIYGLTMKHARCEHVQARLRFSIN

[1] = C. albicans growth with fluconazole, confirmation, fluorescence, retest (AID 2467); format: functional, cell-based
[2] = NIH-3T3 fibroblast cytotoxicity, dose response, cytotoxicity control, cell-based, fluorescence, Alamar Blue, secondary assay (AID 2327); format: functional;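 also: NIH-3T3 mouse fibroblasts cultured with fluconazole at 8 µg/mL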
[3] = molecular target: T2, Replicative DNA helicase DnaB (Mycobacterium tuberculosis, UniProt P9WMR3); assay: DnaB intein splicing inhibitors, dose response, biochemical, cell-free fluorescence (AID 449749); format: functional
T2 sequence (P9WMR3 whole entry): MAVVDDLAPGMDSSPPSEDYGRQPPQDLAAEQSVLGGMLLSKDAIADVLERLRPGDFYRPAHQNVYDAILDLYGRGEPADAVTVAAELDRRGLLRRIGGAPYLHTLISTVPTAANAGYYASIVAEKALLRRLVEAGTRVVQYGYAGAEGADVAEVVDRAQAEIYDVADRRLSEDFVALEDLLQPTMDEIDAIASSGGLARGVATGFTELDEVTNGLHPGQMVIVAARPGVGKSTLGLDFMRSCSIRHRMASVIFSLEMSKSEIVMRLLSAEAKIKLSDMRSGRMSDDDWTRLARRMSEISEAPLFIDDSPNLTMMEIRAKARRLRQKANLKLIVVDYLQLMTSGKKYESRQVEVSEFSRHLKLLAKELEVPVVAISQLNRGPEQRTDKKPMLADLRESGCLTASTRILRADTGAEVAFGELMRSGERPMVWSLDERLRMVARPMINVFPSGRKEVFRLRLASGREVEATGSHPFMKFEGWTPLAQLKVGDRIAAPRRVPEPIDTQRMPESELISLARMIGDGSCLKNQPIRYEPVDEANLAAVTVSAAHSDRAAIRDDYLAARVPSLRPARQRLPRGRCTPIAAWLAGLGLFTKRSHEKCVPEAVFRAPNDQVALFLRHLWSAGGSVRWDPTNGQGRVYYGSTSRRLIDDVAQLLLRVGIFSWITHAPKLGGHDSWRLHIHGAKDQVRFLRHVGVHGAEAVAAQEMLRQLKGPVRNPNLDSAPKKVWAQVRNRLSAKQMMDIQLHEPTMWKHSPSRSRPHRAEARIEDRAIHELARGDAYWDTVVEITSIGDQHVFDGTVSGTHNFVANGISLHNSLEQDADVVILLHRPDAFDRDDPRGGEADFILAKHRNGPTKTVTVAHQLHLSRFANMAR

Protein RecA = molecular target: T3, Protein RecA (Mycobacterium tuberculosis, UniProt P9WHJ3); assay: Fluorescence Cell-Free Homogeneous Dose Retest to Identify Inhibitors of RecA-Intein Splicing Activity. [Related pubchem assays (depositor defined):AID2097, AID2223, AID489010, AID492950]; format: functional
T3 sequence (P9WHJ3 whole entry): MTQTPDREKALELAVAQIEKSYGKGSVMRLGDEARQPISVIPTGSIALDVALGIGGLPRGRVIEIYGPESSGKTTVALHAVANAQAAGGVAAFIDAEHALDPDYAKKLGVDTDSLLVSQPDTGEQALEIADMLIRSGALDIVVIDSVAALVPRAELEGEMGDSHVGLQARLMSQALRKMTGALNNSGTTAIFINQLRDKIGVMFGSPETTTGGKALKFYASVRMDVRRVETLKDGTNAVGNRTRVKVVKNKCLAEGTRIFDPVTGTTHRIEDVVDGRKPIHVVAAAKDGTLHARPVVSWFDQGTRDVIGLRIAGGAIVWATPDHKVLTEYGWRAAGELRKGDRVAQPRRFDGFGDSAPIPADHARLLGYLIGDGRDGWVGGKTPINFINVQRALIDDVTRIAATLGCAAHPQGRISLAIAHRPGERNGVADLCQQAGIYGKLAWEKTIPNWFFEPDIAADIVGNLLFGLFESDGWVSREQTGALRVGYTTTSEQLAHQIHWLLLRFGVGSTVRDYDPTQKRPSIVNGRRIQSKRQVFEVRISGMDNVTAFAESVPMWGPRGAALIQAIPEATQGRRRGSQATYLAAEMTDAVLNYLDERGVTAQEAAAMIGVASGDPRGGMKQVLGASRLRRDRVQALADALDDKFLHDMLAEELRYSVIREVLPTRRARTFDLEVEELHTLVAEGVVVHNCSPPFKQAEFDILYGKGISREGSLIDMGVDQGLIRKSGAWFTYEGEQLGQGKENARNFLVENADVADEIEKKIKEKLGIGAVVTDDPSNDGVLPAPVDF

Cytochrome P450 2C19 = Cytochrome P450 2C19 (Homo sapiens, UniProt P33261); assay: Cytochrome panel assay with activity outcomes. Panel member name: p450-cyp2c19 Compounds with AC50 equal or less than 10 uM are considered active; format: functional; settings: read-out: AC50
Cytochrome P450 3A4 = Cytochrome P450 3A4 (Homo sapiens, UniProt P08684);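 also: CYP3A4 tested as one member of a cytochrome P450 panel screen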
[4] = molecular target: T4, Heat shock factor protein 1 (Mus musculus, UniProt P38532); assay: inhibition of MG132-induced HSE-luciferase signal, confirmation, cell-based, NIH3T3, luminescence, dose retest (AID 2382); format: functional;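 also: NIH3T3 fibroblasts with HSF1-driven luciferase reporter stressed by proteasome inhibitor MG132; luminescence from HSF1-driven luciferase expression after 8 hours of MG132 stress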
T4 sequence (P38532 whole entry): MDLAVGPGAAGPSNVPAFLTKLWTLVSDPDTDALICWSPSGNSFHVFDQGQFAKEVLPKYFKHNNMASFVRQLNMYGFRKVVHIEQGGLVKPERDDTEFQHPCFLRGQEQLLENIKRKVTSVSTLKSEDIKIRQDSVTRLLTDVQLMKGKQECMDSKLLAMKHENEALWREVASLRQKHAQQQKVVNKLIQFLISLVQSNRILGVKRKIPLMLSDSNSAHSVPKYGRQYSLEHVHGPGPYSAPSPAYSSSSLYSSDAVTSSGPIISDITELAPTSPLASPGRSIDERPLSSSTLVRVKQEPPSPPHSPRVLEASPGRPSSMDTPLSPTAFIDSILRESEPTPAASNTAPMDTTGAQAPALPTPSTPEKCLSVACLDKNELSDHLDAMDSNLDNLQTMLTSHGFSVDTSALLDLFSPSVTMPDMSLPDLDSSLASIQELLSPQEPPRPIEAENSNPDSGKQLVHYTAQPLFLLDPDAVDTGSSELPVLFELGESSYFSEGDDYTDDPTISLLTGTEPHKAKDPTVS

Sequence of Cytochrome P450 2C9 (P11712 whole entry): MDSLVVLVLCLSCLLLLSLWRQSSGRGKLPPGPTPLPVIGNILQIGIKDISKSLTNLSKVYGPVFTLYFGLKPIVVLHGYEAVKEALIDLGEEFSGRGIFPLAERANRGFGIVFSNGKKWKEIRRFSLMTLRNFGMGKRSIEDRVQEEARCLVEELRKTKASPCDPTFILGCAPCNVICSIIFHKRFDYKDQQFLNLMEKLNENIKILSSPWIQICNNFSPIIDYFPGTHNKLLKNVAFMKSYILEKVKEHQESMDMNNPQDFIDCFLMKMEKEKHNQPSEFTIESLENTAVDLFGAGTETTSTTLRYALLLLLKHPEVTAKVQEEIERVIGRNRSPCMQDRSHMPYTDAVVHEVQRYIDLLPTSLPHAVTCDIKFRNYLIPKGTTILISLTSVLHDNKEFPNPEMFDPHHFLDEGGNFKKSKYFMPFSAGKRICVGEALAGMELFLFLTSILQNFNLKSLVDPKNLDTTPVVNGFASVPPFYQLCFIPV
Sequence of Cytochrome P450 2D6 (P10635 whole entry): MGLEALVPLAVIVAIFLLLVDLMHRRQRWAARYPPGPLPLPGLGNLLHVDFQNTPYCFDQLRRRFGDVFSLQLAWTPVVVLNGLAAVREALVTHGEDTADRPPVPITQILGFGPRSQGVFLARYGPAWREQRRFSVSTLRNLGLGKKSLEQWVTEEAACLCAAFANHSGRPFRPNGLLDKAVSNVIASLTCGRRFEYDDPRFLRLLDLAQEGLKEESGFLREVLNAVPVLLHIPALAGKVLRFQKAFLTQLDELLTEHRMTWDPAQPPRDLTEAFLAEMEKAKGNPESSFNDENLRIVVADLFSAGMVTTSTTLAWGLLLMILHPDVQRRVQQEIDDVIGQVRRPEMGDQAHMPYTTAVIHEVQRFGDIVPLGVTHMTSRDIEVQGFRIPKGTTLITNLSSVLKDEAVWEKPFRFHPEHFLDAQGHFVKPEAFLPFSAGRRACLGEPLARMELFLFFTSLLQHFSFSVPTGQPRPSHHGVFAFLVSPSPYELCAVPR
Sequence of Cytochrome P450 3A4 (P08684 whole entry): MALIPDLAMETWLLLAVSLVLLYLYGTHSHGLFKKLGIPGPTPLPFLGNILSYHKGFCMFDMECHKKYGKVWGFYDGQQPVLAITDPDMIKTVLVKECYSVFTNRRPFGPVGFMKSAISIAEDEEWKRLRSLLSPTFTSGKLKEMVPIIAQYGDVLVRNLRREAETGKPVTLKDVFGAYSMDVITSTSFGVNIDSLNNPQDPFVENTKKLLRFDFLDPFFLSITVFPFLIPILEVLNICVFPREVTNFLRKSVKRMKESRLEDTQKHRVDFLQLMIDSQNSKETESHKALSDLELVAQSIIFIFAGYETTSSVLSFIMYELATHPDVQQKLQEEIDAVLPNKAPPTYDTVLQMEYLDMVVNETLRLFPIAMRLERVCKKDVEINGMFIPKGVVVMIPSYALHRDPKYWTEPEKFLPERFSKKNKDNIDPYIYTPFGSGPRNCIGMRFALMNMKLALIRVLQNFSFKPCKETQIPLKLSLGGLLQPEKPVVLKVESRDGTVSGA
Sequence of Cytochrome P450 2C19 (P33261 whole entry): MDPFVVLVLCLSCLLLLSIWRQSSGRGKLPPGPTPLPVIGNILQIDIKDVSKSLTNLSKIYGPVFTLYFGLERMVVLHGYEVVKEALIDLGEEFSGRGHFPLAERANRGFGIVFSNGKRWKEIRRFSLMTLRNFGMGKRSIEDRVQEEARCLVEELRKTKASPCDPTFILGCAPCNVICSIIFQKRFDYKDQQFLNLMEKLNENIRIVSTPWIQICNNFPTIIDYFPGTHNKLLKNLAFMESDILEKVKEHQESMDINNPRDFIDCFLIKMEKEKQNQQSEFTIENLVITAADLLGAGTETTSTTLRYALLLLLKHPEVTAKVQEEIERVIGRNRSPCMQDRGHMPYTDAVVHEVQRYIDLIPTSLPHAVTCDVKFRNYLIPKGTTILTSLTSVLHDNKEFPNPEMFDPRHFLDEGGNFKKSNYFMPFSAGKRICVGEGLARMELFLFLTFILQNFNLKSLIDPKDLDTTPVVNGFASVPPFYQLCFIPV

COCCNC(=O)[C@H](C)[C@H]1C[C@]1(C)[C@H](NC(=O)OCc1ccccc1)c1ccccc1
AC50 (Cytochrome P450 2D6): 20 µM (inconclusive) | AC50 (Cytochrome P450 2C9): 20 µM (inconclusive)

C[C@H](NCCc1ccc(O)cc1)[C@@H](O)c1ccc(O)cc1
AC50 (Cytochrome P450 2D6): 15.8 µM (inconclusive) and 12.6 µM (inconclusive)

C[As+](C)(c1ccc(Br)c([N+](=O)[O-])c1)c1ccc(Br)c([N+](=O)[O-])c1
AC50 (Cytochrome P450 2D6): 1.58 µM (inconclusive)

COc1cccc(CNc2ccc3nc(-c4ccc(N)cc4)c(OC)n3n2)c1
AC50 (Cytochrome P450 2D6): 10 µM (inconclusive)

C/N=C1\N[C@H](c2ccccc2)N(c2ccccc2)S1
AC50 (Cytochrome P450 2D6): 25.1 µM (inconclusive)

COc1ccc(N(CC(=O)Nc2cccc(C)c2)S(=O)(=O)c2c(C)n[nH]c2C)cc1
AC50 (Cytochrome P450 2D6): 20 µM (inconclusive)

COc1ccc(-n2c(=O)c(-c3ccc(Cl)cc3)nc3cnc(N(C)C)nc32)cc1
AC50 (Cytochrome P450 2D6): 2.51 µM (inconclusive) | AC50 (Cytochrome P450 1A2): 10 µM (inconclusive)

CCCCCCCSc1nc(N)cc(O)n1
EC50 [1]: 4.49 µM (active) | EC50 [2]: > 150 µM (inactive)

CCC(C)[C@H](NC(=O)NC1CCN(Cc2ccccc2)CC1)C(=O)OC (some centres not stated)
AC50 (Cytochrome P450 2D6): 28.2 µM (inconclusive) | AC50 [3]: 39.9 µM (active) | AC50 (Cytochrome P450 2C9): 2.24 µM (inconclusive) | EC50 (Protein RecA): 2.96 µM (active)

c1cnc2ccc(C(c3nnnn3C3CCCC3)N3CCN4CCCC4C3)cc2c1 (configuration not stated)
AC50 (Cytochrome P450 2D6): 22.4 µM (inconclusive) | AC50 (Cytochrome P450 2C19): 25.1 µM (inconclusive) | AC50 (Cytochrome P450 2C9): 14.1 µM (inconclusive) | AC50 (Cytochrome P450 3A4): 6.31 µM (inconclusive)

CCS(=O)(=O)N1CCC(C(=O)NCCN2CCN(Cc3ccccc3)CC2)CC1
AC50 (Cytochrome P450 2D6): 14.1 µM (inconclusive)

Cc1ccc(C)c(/C(=N\N=C(N)N)C2CC2)c1
AC50 (Cytochrome P450 2D6): 3.98 µM (inconclusive)

COc1nc(N)c(C#N)c(-c2ccc(N(C)CCC#N)cc2)c1C#N
EC50 [4]: 15.6 µM (active)
